Measurements: patent EP4818157A1, “N-SUBSTITUTED CYCLIC AMIDE COMPOUND” (Kissei Pharmaceutical Co., Ltd., priority 2023, dated 2025)

Each compound was assayed against T1, human TSHR (Homo sapiens, UniProt P16473) (assay: Measurement of antagonist activity using TSH-induced cAMP production in human TSHR-stably expressing CHO cells). Settings: human TSH final concentration 50 ng/mL.
T1 construct: expressed in transfected cells
Assay type: cell-based
Description: Measurement of Antagonist Activity Using TSH-induced cAMP Production in Human TSHR-stably Expressing CHO Cells as an Indicator
A gene sequence of human TSHR (reference number NM_000369.2) was inserted into a multiple cloning site of pcDNA3.1(+). The prepared plasmid vector was introduced into CHO cells by a lipofection method to establish human TSHR stably expressing CHO cells. The obtained cells were seeded in a poly-D-lysine-coated 96-well plate at 5 x 10^4 cells/well, and cultured for 1 day in F12 medium containing 10% FBS, 400 µg/mL G418, 50 U/mL penicillin, and 50 µg/mL streptomycin under conditions of 37°C and 5% CO2. After removing a medium, the cells were washed twice with 100 µL per well of an assay buffer (Hanks' Balanced Salt Solution containing 20 mM HEPES and 1 mM IBMX). 30 µL of an assay buffer containing a test compound was added to a well, and the mixture was incubated at room temperature for 15 minutes. Next, 30 µL of an assay buffer containing human TSH (R&D Systems, Inc., final concentration 50 ng/mL) was added, and the mixture was incubated at 37°C for 1 hour. The supernatant was removed, and Lysis and Detection Buffer 2 (Cisbio) was added to prepare a cell lysate by incubating at room temperature for 1 hour. According to the instructions for use of a cAMP Gs HiRange kit (Cisbio), a cell lysate was reacted with d2-labeled cAMP and an anti-cAMP Europium Cryptate labeled antibody (Cisbio) in a 384-well white microplate. Next, a fluorescence intensity ratio (measurement wavelengths 665 nm/620 nm) was measured using a multiplate reader (PHERAstar FSX, BMG LABTECH Japan). A fluorescence intensity ratio of each sample was converted into a cAMP content using a standard curve. A cAMP content was converted into a percentage of a control value, and a cAMP production rate was calculated. Using Prism (Graph Pad Software Inc.), a cAMP production rate was plotted against a test compound concentration, and an IC50 value was calculated. The IC50 of each test compound is shown in the above tables. In the tables, IC50 < 3.0 µM was denoted as A, and 3.0 µM ≤ IC50 < 30 µM was denoted as B. The case where activity was observed but an IC50 value could not be calculated was denoted as C.

T1 sequence (P16473 21-764): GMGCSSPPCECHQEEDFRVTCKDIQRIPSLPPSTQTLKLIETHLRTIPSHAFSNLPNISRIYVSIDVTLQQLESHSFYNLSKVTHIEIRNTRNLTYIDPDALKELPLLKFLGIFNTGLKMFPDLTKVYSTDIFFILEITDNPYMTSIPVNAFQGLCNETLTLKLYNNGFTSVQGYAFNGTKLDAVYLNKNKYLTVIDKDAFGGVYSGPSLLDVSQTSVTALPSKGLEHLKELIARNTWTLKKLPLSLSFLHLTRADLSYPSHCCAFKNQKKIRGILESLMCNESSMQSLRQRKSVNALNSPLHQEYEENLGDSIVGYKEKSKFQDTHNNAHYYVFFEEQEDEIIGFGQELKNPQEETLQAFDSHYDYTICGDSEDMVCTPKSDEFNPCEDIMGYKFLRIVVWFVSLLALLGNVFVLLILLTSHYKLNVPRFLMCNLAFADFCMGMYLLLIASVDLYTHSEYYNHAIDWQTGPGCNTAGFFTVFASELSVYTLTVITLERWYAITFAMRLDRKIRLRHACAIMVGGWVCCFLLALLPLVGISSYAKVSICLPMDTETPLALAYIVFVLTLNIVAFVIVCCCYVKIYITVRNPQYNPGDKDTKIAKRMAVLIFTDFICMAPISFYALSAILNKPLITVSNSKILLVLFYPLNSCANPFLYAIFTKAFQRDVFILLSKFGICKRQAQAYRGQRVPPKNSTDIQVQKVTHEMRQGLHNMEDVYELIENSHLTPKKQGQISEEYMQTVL

Compared with `C[C@@H]1CC[C@@H](NC(N)=O)C(=O)N1Cc1cc(Br)ccc1F` (relative stereo) [Example A-1, 1-((3R^*,6R^*)-1-(5-bromo-2-fluorobenzyl)-6-methyl-2-oxopiperidin-3-yl)urea], `C[C@@H]1CC[C@@H](NC(N)=O)C(=O)N1Cc1cc(C(F)F)ccc1F` (relative stereo) [Example A-2, 1-((3R^*,6R^*)-1-(5-(difluoromethyl)-2-fluorobenzyl)-6-methyl-2-oxopiperidin-3-yl)urea] is lower in IC50: 3 to 30 µM for the first, < 3 µM for the second.

`C[C@@H]1CC[C@@H](NC(N)=O)C(=O)N1Cc1cc(C(F)(F)F)cc(Cl)c1F` (relative stereo) [Example A-3, 1-((3R^*,6R^*)-1-(3-chloro-2-fluoro-5-(trifluoromethyl)benzyl)-6-methyl-2-oxopiperidin-3-yl)urea] and `C[C@@H]1CC[C@@H](NC(N)=O)C(=O)N1Cc1cc(C(F)(F)F)ccc1F` [Example A-13, 1-((3R,6R)-1-(2-fluoro-5-(trifluoromethyl)benzyl)-6-methyl-2-oxopiperidin-3-yl)urea] cannot be ordered by IC50: < 3 µM for the first, < 3 µM for the second.

First: C[C@@H]1CC[C@@H](NC(N)=O)C(=O)N1Cc1cc(-c2ccccc2)ccc1F (relative stereo) [Example A-4, 1-((3R^*,6R^*)-1-((4-fluoro-[1,1'-biphenyl]-3-yl)methyl)-6-methyl-2-oxopiperidin-3-yl)urea]
Second: C[C@@H]1CC[C@@H](NC(N)=O)C(=O)N1Cc1cc(Cc2ccccc2)ccc1F (relative stereo) [Example A-5, 1-((3R^*,6R^*)-1-(5-benzyl-2-fluorobenzyl)-6-methyl-2-oxopiperidin-3-yl)urea]
The IC50 of the first is higher: 3 to 30 µM for the first, < 3 µM for the second.

First: C[C@@H]1CC[C@@H](NC(N)=O)C(=O)N1Cc1cccc(Oc2ccccc2)c1 (relative stereo) [Example A-6, 1-((3R^*,6R^*)-6-methyl-2-oxo-1-(3-phenoxybenzyl)piperidin-3-yl)urea]
Second: C[C@@H]1CC[C@@H](NC(N)=O)C(=O)N1Cc1cc(OCc2ccccc2)ccc1F (relative stereo) [Example A-11, 1-((3R^*,6R^*)-1-(5-(benzyloxy)-2-fluorobenzyl)-6-methyl-2-oxopiperidin-3-yl)urea]
The IC50 of the first is higher: 3 to 30 µM for the first, < 3 µM for the second. The second is the more potent here.

`C[C@@H]1CC[C@@H](NC(N)=O)C(=O)N1Cc1cc(C#Cc2ccccc2)ccc1F` (relative stereo) [Example A-7, 1-((3R^*,6R^*)-1-(2-fluoro-5-(phenylethynyl)benzyl)-6-methyl-2-oxopiperidin-3-yl)urea] and `C[C@@H]1CC[C@@H](NC(N)=O)C(=O)N1Cc1cc(C#Cc2ccncc2)ccc1F` (relative stereo) [Example A-8, 1-((3R^*,6R^*)-1-(2-fluoro-5-(pyridin-4-ylethynyl)benzyl)-6-methyl-2-oxopiperidin-3-yl)urea] cannot be ordered by IC50: < 3 µM for the first, < 3 µM for the second.

Compared with `C[C@@H]1CC[C@@H](NC(N)=O)C(=O)N1Cc1cc(C#Cc2cccnc2)ccc1F` (relative stereo) [Example A-9, 1-((3R^*,6R^*)-1-(2-fluoro-5-(pyridin-3-ylethynyl)benzyl)-6-methyl-2-oxopiperidin-3-yl)urea], `C[C@@H]1CC[C@@H](NC(N)=O)C(=O)N1Cc1cc(C#CC2CC2)ccc1F` (relative stereo) [Example A-10, 1-((3R^*,6R^*)-1-(5-(cyclopropylethynyl)-2-fluorobenzyl)-6-methyl-2-oxopiperidin-3-yl)urea] is higher in IC50: < 3 µM for the first, 3 to 30 µM for the second. The first is the more potent here.

Compared with `C[C@@H]1CC[C@@H](NC(N)=O)C(=O)N1Cc1cc(CCc2ccccc2)ccc1F` (relative stereo) [Example A-12, 1-((3R^*,6R^*)-1-(2-fluoro-5-phenethylbenzyl)-6-methyl-2-oxopiperidin-3-yl)urea], `C[C@H]1CC[C@@H](NC(N)=O)C(=O)N1CCc1cccc(C(F)(F)F)c1` (relative stereo) [Example A-23, 1-((3R^*,6S^*)-6-methyl-2-oxo-1-(3-(trifluoromethyl)phenethyl)piperidin-3-yl)urea] is higher in IC50: < 3 µM for the first, 3 to 30 µM for the second.

First: CC(C)(C)OC(=O)NCC[C@@H]1C[C@H](NC(N)=O)C(=O)N(Cc2cc(C(F)(F)F)ccc2F)C1 (relative stereo) [Example A-19, tert-butyl (2-((3R*,5S*)-1-(2-fluoro-5-(trifluoromethyl)benzyl)-6-oxo-5-ureidopiperidin-3-yl)ethyl)carbamate]
Second: NC(=O)N[C@@H]1C[C@H](F)CN(Cc2cc(C(F)(F)F)ccc2F)C1=O [Example A-18, 1-((3R,5S)-5-fluoro-1-(2-fluoro-5-(trifluoromethyl)benzyl)-2-oxopiperidin-3-yl)urea]
The IC50 of the first is lower: < 3 µM for the first, > 30 µM for the second.

`NC(=O)N[C@@H]1C[C@H]2C[C@H]2N(Cc2cc(C(F)(F)F)ccc2F)C1=O` (relative stereo) [Example A-21, 1-((1R^*,4R^*,6S^*)-2-(2-fluoro-5-(trifluoromethyl)benzyl)-3-oxo-2-azabicyclo[4.1.0]heptan-4-yl)urea] and `NC(=O)N[C@@H]1CC[C@@H](C(F)F)N(Cc2cc(C(F)(F)F)ccc2F)C1=O` [Example A-17, 1-((3R,6S)-6-(difluoromethyl)-1-(2-fluoro-5-(trifluoromethyl)benzyl)-2-oxopiperidin-3-yl)urea] cannot be ordered by IC50: < 3 µM for the first, < 3 µM for the second.

First: NC(=O)N[C@@H]1C[C@@H]2CCCC[C@H]2N(Cc2cccc(C(F)(F)F)c2)C1=O (relative stereo) [Example A-29, 1-((3R^*,4aS^*,8aR^*)-(2-oxo-1-(3-(trifluoromethyl)benzyl)decahydroquinolin-3-yl)urea]
Second: NC(=O)NC1CCC2(CC2)N(Cc2cccc(C(F)(F)F)c2)C1=O (stereo not drawn) [Example A-20, 1-(5-oxo-4-(3-(trifluoromethyl)benzyl)-4-azaspiro[2.5]octan-6-yl)urea]
The IC50 of the first is higher: > 30 µM for the first, 3 to 30 µM for the second. The second is the more potent here.

Compared with `CN(C)C(=O)C[C@@H]1CC[C@@H](NC(N)=O)C(=O)N1Cc1cc(C(F)(F)F)ccc1F` (relative stereo) [Example D-10, 2-((2S^*,5R^*)-1-(2-fluoro-5-(trifluoromethyl)benzyl)-6-oxo-5-ureidopiperidin-2-yl)-N,N-dimethylacetamide], `NC(=O)N[C@@H]1CC[C@@H](C(F)(F)F)N(Cc2cc(C(F)(F)F)ccc2F)C1=O` [Example A-14, 1-((3R,6S)-1-(2-fluoro-5-(trifluoromethyl)benzyl)-2-oxo-6-(trifluoromethyl)piperidin-3-yl)urea] is lower in IC50: > 30 µM for the first, < 3 µM for the second. The second is the more potent here.

`NC(=O)N[C@@H]1CC[C@@H](C(F)(F)F)N(Cc2cc(C(F)F)ccc2F)C1=O` [Example A-15, 1-((3R,6S)-1-(5-(difluoromethyl)-2-fluorobenzyl)-2-oxo-6-(trifluoromethyl)piperidin-3-yl)urea] and `NC(=O)N[C@@H]1CC[C@@H](C(F)(F)F)N(Cc2cc(OC(F)(F)C(F)F)ccc2F)C1=O` [Example A-16, 1-((3R,6S)-1-(2-fluoro-5-(1,1,2,2-tetrafluoroethoxy)benzyl)-2-oxo-6-(trifluoromethyl)piperidin-3-yl)urea] cannot be ordered by IC50: < 3 µM for the first, < 3 µM for the second.

`CC(c1cc(C(F)(F)F)ccc1F)N1C(=O)[C@H](NC(N)=O)CC[C@H]1C(F)(F)F` (stereo partly drawn) [Example A-22, 1-((3R,6S)-1-(1-(2-fluoro-5-(trifluoromethyl)phenyl)ethyl)-2-oxo-6-(trifluoromethyl)piperidin-3-yl)urea] and `CO[C@@H](C)C(=O)N[C@@H]1CC[C@@H](C(F)(F)F)N(Cc2cc(C(F)(F)F)ccc2F)C1=O` [Example A-25, (S)-N-((3R,6S)-1-(2-fluoro-5-(trifluoromethyl)benzyl)-2-oxo-6-(trifluoromethyl)piperidin-3-yl)-2-methoxypropanamide] cannot be ordered by IC50: > 30 µM for the first, > 30 µM for the second.

First: CNC(=O)N[C@@H]1CC[C@@H](C(F)(F)F)N(Cc2cc(C(F)(F)F)ccc2F)C1=O [Example A-24, 1-((3R,6S)-1-(2-fluoro-5-(trifluoromethyl)benzyl)-2-oxo-6-(trifluoromethyl)piperidin-3-yl)-3-methylurea]
Second: CC(=O)N[C@@H]1CC[C@@H](C(F)F)N(Cc2cc(C(F)(F)F)ccc2F)C1=O [Example A-27, N-((3R,6S)-6-(difluoromethyl)-1-(2-fluoro-5-(trifluoromethyl)benzyl)-2-oxopiperidin-3-yl)acetamide]
The IC50 of the first is lower: < 3 µM for the first, 3 to 30 µM for the second.

Compared with `O=C(NC1CC1)N[C@@H]1CC[C@@H](C(F)F)N(Cc2cc(C(F)(F)F)ccc2F)C1=O` [Example A-26, 1-cyclopropyl-3-((3R,6S)-6-(difluoromethyl)-1-(2-fluoro-5-(trifluoromethyl)benzyl)-2-oxopiperidin-3-yl)urea], `O=C(N[C@@H]1CC[C@@H](C(F)F)N(Cc2cc(C(F)(F)F)ccc2F)C1=O)C1CC1` [Example A-28, N-((3R,6S)-6-(difluoromethyl)-1-(2-fluoro-5-(trifluoromethyl)benzyl)-2-oxopiperidin-3-yl)cyclopropanecarboxamide] is lower in IC50: 3 to 30 µM for the first, < 3 µM for the second. The second is the more potent here.
